What was measured:
Format in all cases: biochemical
IDO1 = IDO1 (Homo sapiens, UniProt P14902); experiment: IDO1 Enzymatic Assay (A); conditions: recombinant HIS-tagged IDO1, 40 nM; read-out: IDO enzymatic IC50, nM (A)
Procedure: Compounds to be tested were serially diluted in ten 3-fold steps in DMSO starting from 10 mM DMSO stocks. Compound dilutions or DMSO alone were then dispensed from the dilution plate into a Greiner black 384-well assay plate (catalog #781086) using an Echo 555 acoustic liquid handler (Labcyte). HIS-tagged IDO1 protein (Genbank #: NM_002164) was recombinantly expressed in Escherichia coli using ZYP5052 auto induction media supplemented with 500 μM delta aminolevulinic acid for 48 h at 16° C. IDO1 protein was purified using Ni^2+-affinity resin and size exclusion chromatography. Purified protein was then diluted in assay buffer (50 mM Tris pH 7.0, 1% glycerol, 20 μM methylene blue, 0.05% Tween-20, 20 mM sodium ascorbate, 100 units/mL catalase) to obtain a final IDO1 concentration of 40 nM. […] were dispensed to wells of the assay plate using a BioRAPTR liquid dispenser (Beckman Coulter). Assay plates containing compound and IDO1 enzyme were incubated at RT for 30 min. Afterwards, 10 μL of 400 μM tryptophan in assay buffer were added to each well of the assay plate using a BioRAPTR liquid dispenser. […] The resulting fluoresence was measured in an Envision plate reader (Perkin Elmer) with a 400/25 nm excitation filter and an 510/20 nm emission filter. […] Potencies were calculated by linear least squares fit to the four parameter logistic IC50 equation.

MELK = MELK (Homo sapiens, UniProt Q14680); experiment: Off-target kinase panel, ZLYTE: MELK; conditions: read-out: Estimated IC50 (uM) MELK
Sequence of MELK (Q14680 whole entry): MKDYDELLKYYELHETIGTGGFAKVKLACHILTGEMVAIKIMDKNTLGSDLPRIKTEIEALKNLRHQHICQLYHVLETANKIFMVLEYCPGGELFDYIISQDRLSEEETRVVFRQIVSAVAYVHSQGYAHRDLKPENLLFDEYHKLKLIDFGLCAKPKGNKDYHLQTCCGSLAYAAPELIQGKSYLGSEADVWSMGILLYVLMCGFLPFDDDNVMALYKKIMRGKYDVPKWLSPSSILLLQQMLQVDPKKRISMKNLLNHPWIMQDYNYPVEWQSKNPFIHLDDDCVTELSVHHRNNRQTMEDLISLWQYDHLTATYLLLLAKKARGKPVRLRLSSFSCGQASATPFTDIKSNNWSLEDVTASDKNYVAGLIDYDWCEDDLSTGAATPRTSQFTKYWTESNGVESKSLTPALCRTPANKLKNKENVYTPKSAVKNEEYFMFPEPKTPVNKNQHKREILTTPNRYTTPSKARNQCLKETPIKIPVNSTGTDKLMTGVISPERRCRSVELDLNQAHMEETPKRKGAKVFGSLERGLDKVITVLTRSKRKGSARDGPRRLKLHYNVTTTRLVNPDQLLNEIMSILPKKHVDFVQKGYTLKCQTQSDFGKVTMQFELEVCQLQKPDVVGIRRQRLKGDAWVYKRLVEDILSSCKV
Source text: (§1) The activity data was obtained in a panel of 265 and 264 for compounds 1-1 and CC-1, respectively, using the ZLYTE and ADAPTA assay methods indicated in the table below.
(§2) The ZLYTE biochemical assay employs a fluorescence-based, coupled-enzyme format and is based on the differential sensitivity of phosphorylated and non-phosphorylated peptides to proteolytic cleavage. The peptide substrate is labeled with two fluorophores—one at each end—that make up a Fluorescence Resonance Energy Transfer (FRET) pair.
(§3) In the primary reaction, the kinase transfers the gamma-phosphate of ATP to a single tyrosine, serine or threonine residue in a synthetic FRET-peptide. In the secondary reaction, a site-specific protease recognizes and cleaves non-phosphorylated FRET-peptides. Phosphorylation of FRET-peptides suppresses cleavage by the Development Reagent. […] A ratiometric method, which calculates the ratio (the Emission Ratio) of donor emission to acceptor emission after excitation of the donor fluorophore at 400 nm, is used to quantitate reaction progress, as shown in the equation below. […]
(§4) Both cleaved and uncleaved FRET-peptides contribute to the fluorescence signals and therefore to the Emission Ratio. The extent of phosphorylation of the FRET-peptide can be calculated from the Emission Ratio. […]
(§5) 10. Read on fluorescence plate reader and analyze the data.

SGK2 = molecular target: T1, SGK2 (Homo sapiens, UniProt Q9HBY8); experiment: Off-target kinase panel, ZLYTE: SGK2; conditions: read-out: Estimated IC50 (uM) SGK2
T1 sequence (Q9HBY8 1-367): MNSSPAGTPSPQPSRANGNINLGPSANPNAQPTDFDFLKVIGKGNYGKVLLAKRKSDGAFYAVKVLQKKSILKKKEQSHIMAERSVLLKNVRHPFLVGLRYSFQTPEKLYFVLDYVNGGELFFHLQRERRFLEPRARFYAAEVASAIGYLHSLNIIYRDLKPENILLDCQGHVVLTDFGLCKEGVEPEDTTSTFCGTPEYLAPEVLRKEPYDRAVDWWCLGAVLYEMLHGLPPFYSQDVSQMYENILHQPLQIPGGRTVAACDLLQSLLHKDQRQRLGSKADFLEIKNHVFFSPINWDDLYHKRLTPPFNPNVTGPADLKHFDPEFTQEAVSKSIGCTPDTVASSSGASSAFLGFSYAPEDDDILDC
Source text: as §1, §2, §3, §4, §5

Sequence of IDO1 (P14902 whole entry): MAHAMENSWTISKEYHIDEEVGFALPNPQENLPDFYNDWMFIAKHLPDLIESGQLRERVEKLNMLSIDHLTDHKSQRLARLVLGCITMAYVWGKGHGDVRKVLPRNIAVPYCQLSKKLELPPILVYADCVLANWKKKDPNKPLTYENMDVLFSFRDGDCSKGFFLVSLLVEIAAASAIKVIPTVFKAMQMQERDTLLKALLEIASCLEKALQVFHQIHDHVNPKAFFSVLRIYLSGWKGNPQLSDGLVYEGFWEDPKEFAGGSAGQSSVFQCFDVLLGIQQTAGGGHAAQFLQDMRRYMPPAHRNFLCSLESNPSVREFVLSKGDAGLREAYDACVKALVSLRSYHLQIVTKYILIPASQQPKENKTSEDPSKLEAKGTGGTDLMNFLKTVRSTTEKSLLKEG

Row | IC50 (IDO1) [nM] | IC50 (MELK) [µM] | IC50 (SGK2) [µM] | Compound
1 | 129 | > 2 | > 2 | C[C@@H]1CN(c2cc(Br)cc3[nH]ncc23)CC[C@]12NC(=O)NC2=O (single isomer, unassigned) [Compound 1-1]
2 | 113 | 1.4 | 1.3 | O=C1NC(=O)C2(CCN(c3cc(Cl)cc4[nH]ncc34)CC2)N1 [CC-1]
